Assays:
[1] = Half life of the compound in fluka 82567 buffer at pH 7 by HPLC analysis; assay type: physicochemical
[2] = Half life of the compound in fluka 82564 buffer at pH 2 by HPLC analysis; assay type: physicochemical
[3] = Cytotoxicity against cat CRFK cells; assay type: cell-based, Felis catus
[4] = Stability of the compound in fluka 82567 buffer at pH 7 assessed as compound degradation after 2 days by HPLC analysis; assay type: physicochemical; conditions: pH 7, 48 h
CCRF-CEM = experiment: Cytotoxicity against human CEM cells; assay type: cell-based
Vaccinia virus = experiment: Antiviral activity against Vaccinia virus Lederle infected in HEL cells assessed as inhibition of virus-induced cytopathicity; assay type: functional, organism-based; conditions: Orthopoxvirus vaccinia
Feline coronavirus = experiment: Antiviral activity against Feline coronavirus in cat CrFK cells assessed as plaque formation; assay type: functional, organism-based; conditions: Alphacoronavirus 1, CRFK
Human alphaherpesvirus 3 [5] = experiment: Antiviral activity against Varicellla-zoster virus Oka infected in HEL cells assessed as inhibition of virus-induced cytopathicity; assay type: functional, cell-based; conditions: Human alphaherpesvirus 3, strain Oka vaccine
[6] = system: Human immunodeficiency virus 1; experiment: Antiviral activity against HIV-1 3B infected in human CEM cells assessed as HIV-induced host giant cell formation after 4 days by microscopic analysis; assay type: functional, organism-based; conditions: Human immunodeficiency virus 1, 3B, CCRF-CEM, 96 h
[7] = system: Human immunodeficiency virus 2; experiment: Antiviral activity against HIV-2 ROD infected in human CEM cells assessed as HIV-induced host giant cell formation after 4 days by microscopic analysis; assay type: functional, organism-based; conditions: Human immunodeficiency virus 2, ISOLATE ROD, CCRF-CEM, 96 h
L1210 = experiment: Cytotoxicity against mouse L1210 cells; assay type: cell-based
[8] = Cytotoxicity against human HEL cells; assay type: cell-based
Felid alphaherpesvirus 1 = experiment: Antiviral activity against Feline herpesvirus in cat CrFK cells assessed as plaque formation; assay type: functional, organism-based; conditions: Felid alphaherpesvirus 1, CRFK
Human alphaherpesvirus 3 [9] = experiment: Antiviral activity against Varicellla-zoster virus 07-1 infected in HEL cells assessed as inhibition of virus-induced cytopathicity; assay type: functional, organism-based; conditions: Human alphaherpesvirus 3, 07-1, HEL
[10] = system: Vesicular stomatitis virus; experiment: Antiviral activity against Vesicular somatitis virus infected in HEL cells assessed as inhibition of virus-induced cytopathicity; assay type: functional, organism-based
Human alphaherpesvirus 2 = experiment: Antiviral activity against HSV-2 G infected in HEL cells assessed as inhibition of virus-induced cytopathicity; assay type: functional, organism-based; conditions: Human alphaherpesvirus 2, strain G
[11] = Stability of the compound at -20 degC assessed as compound degradation after 4 months by HPLC analysis; assay type: physicochemical; conditions: 2922 h
Human betaherpesvirus 5 = experiment: Antiviral activity against Cytomegalovirus AD-169 infected in HEL cells assessed as inhibition of virus-induced cytopathicity; assay type: functional, organism-based; conditions: Human betaherpesvirus 5, AD169, HEL
Human alphaherpesvirus 1 [12] = experiment: Antiviral activity against HSV-1 KOS infected in HEL cells assessed as inhibition of virus-induced cytopathicity; assay type: functional, organism-based; conditions: Human alphaherpesvirus 1, KOS
Human alphaherpesvirus 1 [13] = experiment: Antiviral activity against thymidine kinase-deficient ACV-resistant HSV-1 KOS infected in HEL cells assessed as inhibition of virus-induced cytopathicity; assay type: functional, organism-based; conditions: Human alphaherpesvirus 1, KOS
Cytomegalovirus = experiment: Antiviral activity against Cytomegalovirus Davis infected in HEL cells assessed as inhibition of virus-induced cytopathicity; assay type: functional, organism-based; conditions: Human betaherpesvirus 5, Davis
[14] = Stability of the compound in fluka 82571 buffer at pH 5 assessed as compound degradation after 2 days by HPLC analysis; assay type: physicochemical; conditions: pH 5, 48 h

C[C@H](NP(=O)(Oc1ccccc1)O[C@H]1O[C@H](CO)[C@@H](O)[C@@H]1F)C(=O)OC1CCCCC1 (some centres not stated)
t1/2 [1]: 2 h | t1/2 [2]: 1.07 h

C[C@H](NP(=O)(Oc1ccccc1)O[C@H]1O[C@H](CO)[C@@H](O)C1(F)F)C(=O)OC1CCCCC1 (mixture of isomers)
CC50 [3]: > 100 µM | Stability [4]: Stable | IC50 (CCRF-CEM): > 30 µM | EC50 (Vaccinia virus): > 20 µM | EC50 (Feline coronavirus): > 20 µM | EC50 (Human alphaherpesvirus 3 [5]): > 20 µM | EC50 [6]: > 250 µM | EC50 [7]: > 250 µM | IC50 (L1210): > 30 µM | MCC [8]: ≥ 100 µM | EC50 (Felid alphaherpesvirus 1): > 20 µM | EC50 (Human alphaherpesvirus 3 [9]): > 20 µM | EC50 [10]: > 20 µM | EC50 (Human alphaherpesvirus 2): > 20 µM | Stability [11]: Stable | EC50 (Human betaherpesvirus 5): > 20 µM | EC50 (Human alphaherpesvirus 1 [12]): > 20 µM | EC50 (Human alphaherpesvirus 1 [13]): > 20 µM | EC50 (Cytomegalovirus): > 20 µM | Stability [14]: Stable

From ChEMBL document CHEMBL2385007, “Synthesis and biological evaluation of prodrugs of 2-fluoro-2-deoxyribose-1-phosphate and 2,2-difluoro-2-deoxyribose-1-phosphate” (Bioorg Med Chem Lett, 2013)
